Data published in ChEMBL document CHEMBL1201862, “PubChem BioAssay data set” (2004).
Values joined by “and” are separate entries in the source; they are usually repeats but may differ in a detail not shown here. Equal values may be shown once. Each block holds one molecule with its values, some of them ahead of it. Active and inactive are the calls of the source. Rule as the data show it, for most assays here: actives have a measured IC50 and inactives only a lower limit.

What was measured:
Format in all cases: functional
[1] = target: T1, Sentrin-specific protease 6 (Homo sapiens, UniProt Q9GZR1); experiment: inhibition of human SENP6 catalytic domain – biochemical, luminescence, set 2, SAR follow-up (AID 588598)
T1 sequence (Q9GZR1 whole entry): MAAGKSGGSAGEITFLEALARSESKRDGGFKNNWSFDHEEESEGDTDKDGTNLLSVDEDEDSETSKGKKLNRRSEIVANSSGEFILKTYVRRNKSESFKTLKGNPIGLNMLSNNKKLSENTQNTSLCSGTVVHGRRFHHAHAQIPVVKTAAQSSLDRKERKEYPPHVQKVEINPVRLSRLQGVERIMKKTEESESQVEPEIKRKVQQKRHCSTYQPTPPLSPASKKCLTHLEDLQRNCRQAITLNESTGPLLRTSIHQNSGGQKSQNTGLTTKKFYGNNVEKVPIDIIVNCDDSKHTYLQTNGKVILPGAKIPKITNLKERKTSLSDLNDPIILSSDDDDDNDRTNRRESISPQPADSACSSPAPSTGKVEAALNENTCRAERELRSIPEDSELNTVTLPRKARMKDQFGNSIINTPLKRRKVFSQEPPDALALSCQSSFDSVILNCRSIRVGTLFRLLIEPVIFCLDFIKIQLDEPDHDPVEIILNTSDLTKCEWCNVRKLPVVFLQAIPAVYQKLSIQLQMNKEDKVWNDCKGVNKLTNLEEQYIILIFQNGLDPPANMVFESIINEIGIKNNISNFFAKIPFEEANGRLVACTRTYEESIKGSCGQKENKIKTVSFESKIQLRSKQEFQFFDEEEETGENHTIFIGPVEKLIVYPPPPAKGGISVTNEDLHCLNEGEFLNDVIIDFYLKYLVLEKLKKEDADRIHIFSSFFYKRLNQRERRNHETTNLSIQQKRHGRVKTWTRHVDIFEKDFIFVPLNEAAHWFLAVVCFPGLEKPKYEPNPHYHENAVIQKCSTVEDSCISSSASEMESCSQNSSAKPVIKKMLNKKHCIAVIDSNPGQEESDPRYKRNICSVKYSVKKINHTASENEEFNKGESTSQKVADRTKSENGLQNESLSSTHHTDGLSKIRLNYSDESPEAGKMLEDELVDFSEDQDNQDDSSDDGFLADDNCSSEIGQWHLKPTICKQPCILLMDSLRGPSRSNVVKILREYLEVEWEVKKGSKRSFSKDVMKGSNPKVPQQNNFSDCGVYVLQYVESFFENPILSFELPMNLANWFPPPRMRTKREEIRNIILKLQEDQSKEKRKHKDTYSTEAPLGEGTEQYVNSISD

[2] = target: T2, Caspase-3 (Homo sapiens, UniProt P42574); experiment: SAR Analysis of small molecule inhibitors of Sentrin-specific proteases (SENPs) using a Caspase-3 Selectivity assay. [Related pubchem assays (depositor defined):AID2540, AID2599, AID434973, AID489001]
T2 sequence (P42574 whole entry): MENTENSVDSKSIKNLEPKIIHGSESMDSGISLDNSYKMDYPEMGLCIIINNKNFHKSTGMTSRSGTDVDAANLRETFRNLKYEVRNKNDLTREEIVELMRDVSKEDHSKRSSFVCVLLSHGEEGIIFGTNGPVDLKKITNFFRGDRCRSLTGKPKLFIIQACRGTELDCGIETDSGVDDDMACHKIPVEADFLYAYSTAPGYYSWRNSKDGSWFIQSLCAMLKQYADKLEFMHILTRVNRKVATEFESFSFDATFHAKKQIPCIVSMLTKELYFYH

[3] = target: T1, Sentrin-specific protease 6; experiment: SAR Analysis of small molecule inhibitors of Sentrin-specific protease 6 (SENP6) using a Luminescent assay. [Related pubchem assays (depositor defined):AID2582, AID2599]
[4] = target: T3, Sentrin-specific protease 8 (Homo sapiens, UniProt Q96LD8); experiment: inhibition of sentrin protease 8 – biochemical, luminescence, set 2, SAR follow-up (AID 588601)
T3 sequence (Q96LD8 whole entry): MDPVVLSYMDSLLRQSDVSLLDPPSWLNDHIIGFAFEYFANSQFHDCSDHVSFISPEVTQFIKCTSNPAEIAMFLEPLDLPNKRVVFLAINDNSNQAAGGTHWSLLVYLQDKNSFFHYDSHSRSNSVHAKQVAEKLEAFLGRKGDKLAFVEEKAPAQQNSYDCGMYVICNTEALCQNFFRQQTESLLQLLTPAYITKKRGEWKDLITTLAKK

[5] = target: T3, Sentrin-specific protease 8; experiment: inhibition of human SENP8 cleavage activity – biochemical, luminescence, SAR follow-up (AID 504501)
[6] = target: T4, Sentrin-specific protease 7 (Homo sapiens, UniProt Q9BQF6); experiment: inhibition of human SENP7 cleavage activity – biochemical, luminescence, SAR follow-up (AID 504497)
T4 sequence (Q9BQF6 whole entry): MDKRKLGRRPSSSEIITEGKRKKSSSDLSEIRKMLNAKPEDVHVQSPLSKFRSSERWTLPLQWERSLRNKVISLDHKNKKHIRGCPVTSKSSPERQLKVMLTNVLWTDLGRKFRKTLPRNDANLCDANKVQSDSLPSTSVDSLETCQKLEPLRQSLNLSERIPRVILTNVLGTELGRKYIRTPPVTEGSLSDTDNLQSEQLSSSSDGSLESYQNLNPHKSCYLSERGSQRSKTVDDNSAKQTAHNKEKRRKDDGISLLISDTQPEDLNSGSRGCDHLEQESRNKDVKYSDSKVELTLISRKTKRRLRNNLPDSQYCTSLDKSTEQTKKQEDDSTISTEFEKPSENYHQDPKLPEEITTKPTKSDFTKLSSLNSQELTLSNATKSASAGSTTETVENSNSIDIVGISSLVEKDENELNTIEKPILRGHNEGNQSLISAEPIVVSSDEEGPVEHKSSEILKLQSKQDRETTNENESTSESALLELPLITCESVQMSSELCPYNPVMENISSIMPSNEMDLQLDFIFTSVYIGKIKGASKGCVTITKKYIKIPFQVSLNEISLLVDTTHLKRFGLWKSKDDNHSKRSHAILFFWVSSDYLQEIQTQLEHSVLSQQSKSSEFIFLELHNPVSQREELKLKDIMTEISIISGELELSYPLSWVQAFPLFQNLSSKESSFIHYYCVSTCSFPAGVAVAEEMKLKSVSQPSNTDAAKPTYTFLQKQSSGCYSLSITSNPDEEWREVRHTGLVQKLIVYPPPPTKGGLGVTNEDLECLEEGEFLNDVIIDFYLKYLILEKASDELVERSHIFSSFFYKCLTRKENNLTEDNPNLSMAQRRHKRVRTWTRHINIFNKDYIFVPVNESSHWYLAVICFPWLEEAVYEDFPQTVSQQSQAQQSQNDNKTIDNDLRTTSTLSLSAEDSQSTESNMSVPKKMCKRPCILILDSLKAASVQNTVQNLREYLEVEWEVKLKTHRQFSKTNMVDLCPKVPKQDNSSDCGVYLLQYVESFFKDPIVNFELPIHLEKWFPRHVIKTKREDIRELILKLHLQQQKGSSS

[7] = target: T4, Sentrin-specific protease 7; experiment: inhibition of human SENP7 cleavage activity – biochemical, luminescence, set 2, SAR follow-up (AID 588600)
[8] = target: T5, Neuropeptides B/W receptor type 1 (Homo sapiens, UniProt P48145); experiment: human NPBW1 receptor blockade, IC50 – cell-based, fluorescence, dose response, set 6, late-stage follow-up (AID 588583)
T5 sequence (P48145 whole entry): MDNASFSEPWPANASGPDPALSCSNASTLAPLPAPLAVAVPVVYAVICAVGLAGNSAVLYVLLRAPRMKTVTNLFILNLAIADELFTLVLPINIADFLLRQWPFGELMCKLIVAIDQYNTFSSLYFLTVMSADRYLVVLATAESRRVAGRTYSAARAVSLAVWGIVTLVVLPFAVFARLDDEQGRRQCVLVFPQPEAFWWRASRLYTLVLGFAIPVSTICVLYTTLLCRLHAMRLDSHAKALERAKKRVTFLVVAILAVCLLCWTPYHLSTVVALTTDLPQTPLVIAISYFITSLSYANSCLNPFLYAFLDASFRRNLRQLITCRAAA

[9] = target: Melanin-concentrating hormone receptor 1 (Homo sapiens, UniProt Q99705); experiment: Late-stage fluorescence-based counterscreen for antagonists of the G-protein coupled receptor 7 (GPR7): cell-based dose response assay to identify antagonists of the melanin-concentrating hormone receptor 1 (MCHR1) Set 6.
Melanin-concentrating hormone receptor 1, sequence (Q99705 whole entry): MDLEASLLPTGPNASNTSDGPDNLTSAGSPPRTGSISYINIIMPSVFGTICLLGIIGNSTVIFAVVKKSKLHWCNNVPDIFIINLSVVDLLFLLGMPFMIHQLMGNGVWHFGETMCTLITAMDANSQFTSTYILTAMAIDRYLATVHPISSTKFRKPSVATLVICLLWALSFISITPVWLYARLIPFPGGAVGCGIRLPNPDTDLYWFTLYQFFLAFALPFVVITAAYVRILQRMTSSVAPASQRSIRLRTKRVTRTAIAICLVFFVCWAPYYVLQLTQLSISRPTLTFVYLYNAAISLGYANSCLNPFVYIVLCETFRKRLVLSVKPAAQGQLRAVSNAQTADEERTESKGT

SMILES: CCCCc1ccc2nc(NC(=O)c3sccc3Cl)sc2c1
IC50 [1]: 1150 nM (active) | IC50 [2]: 1100 nM (active) | IC50 [3]: 970 nM (active) | IC50 [4]: 1060 nM (active) | IC50 [5]: 990 nM (active) | IC50 [6]: 960 nM (active) | IC50 [7]: 1160 nM (active)

SMILES: O=C(Nc1ccc(-c2noc(/C=C/c3ccccc3)n2)cc1)c1ccc(Br)o1
IC50 [2]: > 99000 nM (inactive) | IC50 [3]: > 99000 nM (inactive) | IC50 [5]: > 99000 nM (inactive) | IC50 [6]: > 99000 nM (inactive)

SMILES: CCn1ccc2ccc(Oc3c(Cl)cnn(Cc4cccc5ccccc45)c3=O)cc21
IC50 [8]: > 20 µM (inactive) | IC50 [9]: > 20 µM (inactive)

Now from value to molecule:

IC50 [8]: 253 nM (active) and 1.62 µM (active) | IC50 [9]: 253 nM (active) and 1.62 µM (active)
SMILES: CC(C)c1ccc(C(C#N)c2c(Cl)cnn(Cc3cccc4ccccc34)c2=O)cc1 (configuration not stated)

IC50 [8]: 0.553 µM (active) | IC50 [9]: 0.553 µM (active)
SMILES: N#Cc1cccc(C(C#N)c2c(Cl)cnn(Cc3cccc4ccccc34)c2=O)c1 (configuration not stated)
